From patent US9580390B2, “Indazole compounds as kinase inhibitors and method of treating cancer with same” (University Health Network, priority 2011, dated 2017)
Where two headings read alike, the source gives them in different places.

Tests used:
Breast cancer cells = test: Cancer cell line growth inhibition (SRB assay); assay type: cell-based; conditions: Homo sapiens; MDA-MB-468; read-out: Cancer Cell Line GI50 Range MDA-MB-468
MELK = biological target: T1, MELK (Homo sapiens, UniProt Q14680); test: Panel of 270 human kinases (Millipore); assay type: biochemical
T1 construct: purchased Millipore Corporation
Protocol: (§1) The inhibitory activity of selected compounds of the invention (A335, A405, A410, A261, A300 and A363) was evaluated against a panel of 270 different human kinase enzymes by Millipore Corporation. The % Inhibition was determined by the formula: % Inhibition=100×(1−(experimental value−background value)/(high activity control−background value)).

Aurora-B = biological target: T2, Aurora-B (Homo sapiens, UniProt Q96GD4); test: Panel of 270 human kinases (Millipore); assay type: biochemical
T2 construct: purchased Millipore Corporation
Protocol: as §1

JNK3 = biological target: T3, JNK3 (Homo sapiens, UniProt P53779); test: Panel of 270 human kinases (Millipore); assay type: biochemical
T3 construct: purchased Millipore Corporation
Protocol: as §1

MAPK2 = biological target: T4, MAPK2 (Homo sapiens, UniProt P28482); test: Panel of 270 human kinases (Millipore); assay type: biochemical
T4 construct: purchased Millipore Corporation
Protocol: as §1

cKit (V560G) = biological target: T5, cKit (V560G) (Homo sapiens, UniProt P10721, V560G); test: Panel of 270 human kinases (Millipore); assay type: biochemical
T5 construct: purchased Millipore Corporation
Protocol: as §1

Met(Y1248C) = biological target: T6, Met(Y1248C) (Homo sapiens, UniProt P08581, Y1230C); test: Panel of 270 human kinases (Millipore); assay type: biochemical
T6 construct: purchased Millipore Corporation
Protocol: as §1

MUSK = biological target: T7, MUSK (Homo sapiens, UniProt O15146); test: Panel of 270 human kinases (Millipore); assay type: biochemical
T7 construct: purchased Millipore Corporation
T7 sequence (O15146 24-869): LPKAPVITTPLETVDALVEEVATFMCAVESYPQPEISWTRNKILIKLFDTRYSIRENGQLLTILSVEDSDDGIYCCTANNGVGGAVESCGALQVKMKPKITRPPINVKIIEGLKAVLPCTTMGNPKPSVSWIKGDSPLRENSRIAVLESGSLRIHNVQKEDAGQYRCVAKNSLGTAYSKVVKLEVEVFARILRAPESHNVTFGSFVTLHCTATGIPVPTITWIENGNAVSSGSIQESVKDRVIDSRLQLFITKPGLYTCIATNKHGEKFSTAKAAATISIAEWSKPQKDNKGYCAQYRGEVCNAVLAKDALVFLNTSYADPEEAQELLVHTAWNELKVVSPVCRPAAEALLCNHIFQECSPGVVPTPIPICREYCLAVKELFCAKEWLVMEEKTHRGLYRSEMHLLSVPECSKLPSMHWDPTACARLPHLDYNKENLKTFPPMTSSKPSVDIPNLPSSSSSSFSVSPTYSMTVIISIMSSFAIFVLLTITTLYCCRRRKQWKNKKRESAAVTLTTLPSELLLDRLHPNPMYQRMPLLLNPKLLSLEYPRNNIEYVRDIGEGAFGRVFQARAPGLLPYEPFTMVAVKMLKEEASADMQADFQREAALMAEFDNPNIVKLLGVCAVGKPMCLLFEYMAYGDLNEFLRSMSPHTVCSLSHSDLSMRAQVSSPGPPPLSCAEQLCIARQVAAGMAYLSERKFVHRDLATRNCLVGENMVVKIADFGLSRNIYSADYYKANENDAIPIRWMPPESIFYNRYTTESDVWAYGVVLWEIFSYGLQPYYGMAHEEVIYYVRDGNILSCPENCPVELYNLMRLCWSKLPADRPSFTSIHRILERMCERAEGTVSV
Protocol: as §1

ALK = biological target: T8, ALK (Homo sapiens, UniProt Q9UM73); test: Panel of 270 human kinases (Millipore); assay type: biochemical
T8 construct: purchased Millipore Corporation
Protocol: as §1

human TTK = biological target: T9, human TTK (Homo sapiens, UniProt P33981); test: TTK inhibition assay (indirect ELISA); assay type: biochemical
T9 construct: amino terminal GST fusion of full length human TTK; purchased Invitrogen
T9 sequence (P33981 1-857): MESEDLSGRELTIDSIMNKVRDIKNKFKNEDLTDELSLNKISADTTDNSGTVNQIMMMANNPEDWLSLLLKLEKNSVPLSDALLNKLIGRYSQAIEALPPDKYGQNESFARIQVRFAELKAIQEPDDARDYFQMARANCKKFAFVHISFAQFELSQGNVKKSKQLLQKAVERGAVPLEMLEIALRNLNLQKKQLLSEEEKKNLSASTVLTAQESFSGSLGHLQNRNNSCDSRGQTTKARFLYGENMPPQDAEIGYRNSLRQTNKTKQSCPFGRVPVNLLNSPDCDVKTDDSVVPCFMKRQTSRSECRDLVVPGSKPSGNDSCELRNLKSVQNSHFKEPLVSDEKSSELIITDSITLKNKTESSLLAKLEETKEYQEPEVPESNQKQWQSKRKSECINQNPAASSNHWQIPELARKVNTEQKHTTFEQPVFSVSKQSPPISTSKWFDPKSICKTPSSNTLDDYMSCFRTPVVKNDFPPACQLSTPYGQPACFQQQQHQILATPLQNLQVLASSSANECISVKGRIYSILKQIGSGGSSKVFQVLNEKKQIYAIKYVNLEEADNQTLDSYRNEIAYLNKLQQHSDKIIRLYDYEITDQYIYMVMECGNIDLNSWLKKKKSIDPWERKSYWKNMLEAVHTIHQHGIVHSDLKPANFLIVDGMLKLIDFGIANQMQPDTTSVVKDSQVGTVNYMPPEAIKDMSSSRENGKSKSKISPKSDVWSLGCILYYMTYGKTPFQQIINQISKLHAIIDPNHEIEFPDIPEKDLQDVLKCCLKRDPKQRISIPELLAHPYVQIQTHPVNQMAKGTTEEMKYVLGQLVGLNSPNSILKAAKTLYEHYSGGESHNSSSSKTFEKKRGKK

[1] = test system: ovarian cancer cells (PA-1); test: Cancer cell line growth inhibition (SRB assay); assay type: cell-based; conditions: Homo sapiens, PA-1; read-out: Cancer Cell Line GI50 Range PA-1
[2] = test system: colon cancer cells (HCT116); test: Cancer cell line growth inhibition (SRB assay); assay type: cell-based; conditions: Homo sapiens, HCT-116; read-out: Cancer Cell Line GI50 Range HCT116
TICs (Ovarian 2393A) = test: Ovarian tumor-initiating cell growth inhibition (Alamar Blue); assay type: cell-based; conditions: 144 h; Ovarian 2393A TICs, 6 days; read-out: Tumor Initiating Cell GI50 Range Ovarain 2393A
TICs (Colon 12) = test: Colon tumor-initiating cell growth inhibition (Alamar Blue); assay type: cell-based; conditions: 216 h; Colon 12 TICs, 9 days; read-out: Tumor Initiating Cell GI50 Range Colon 12
Source text: Materials and Methods: Non-tissue or tissue cultured treated T-75 flask and 96-well plates were purchased from VWR. Vitamin B-27 supplement, MEM NEAA (minimum essential medium non essential amino acids), sodium pyruvate, L-glutamine, N2 supplement, penicillin-streptomycin and fungizone/amphotericin B were obtained from Invitrogen. Lipid mixture, heparin and EGF were purchased from Sigma; bFGF from BD Biosciences. Tumor Initiating Cells (TICs) from colon were routinely maintained using non-tissue cultured treated T-75 flasks in DMEM:F12 medium containing 0.2×B-27 supplement, 4 ug/ml heparin, 1×MEM NEAA, 1× sodium pyruvate, 1 mM glutamine, 10 pg/ul bFGF, 20 pg/ul EGF, 1×N2 supplement, lipid mixture, penicillin-streptomycin and fungizone/amphotericin B. Ovarian TICs were routinely maintained using tissue cultured treated T-75 flasks in DMEM:F12 medium containing 1×B-27 supplement, 4 ug/ml heparin, 20 pg/ul bFGF, 20 pg/ul EGF and penicillin-streptomycin.
Assay Protocol: Compounds described herein were dissolved in DMSO and further diluted in cell culture medium for GI50 determination. Colon TICs were trypsinized and seeded into non-tissue cultured treated 96-well plates with 4,000 cells/well. After 24 h, compound was added into the cell culture at different concentrations, and the final concentration of DMSO was adjusted to 0.1%. Cells were then cultured at 37° C. for 9 days. Ovarian TICs were trypsinized and seeded into tissue cultured treated 96-well plates with 1,000 cells/well. After 24 h, compound was added into the cell culture at different concentrations, and the final concentration of DMSO was adjusted to 0.1%. Cells were then cultured at 37° C. for 6 days. Cell viability was assessed by Alamar Blue assay: 10 ul of Alamar Blue was added into each well. After 4 hours incubation at 37° C., fluorescence was recorded at excitation 544 and emission 590. GI50 (Growth inhibition) was calculated using GraphPad Prism 4.0 software.

T4 sequence (P28482 whole entry): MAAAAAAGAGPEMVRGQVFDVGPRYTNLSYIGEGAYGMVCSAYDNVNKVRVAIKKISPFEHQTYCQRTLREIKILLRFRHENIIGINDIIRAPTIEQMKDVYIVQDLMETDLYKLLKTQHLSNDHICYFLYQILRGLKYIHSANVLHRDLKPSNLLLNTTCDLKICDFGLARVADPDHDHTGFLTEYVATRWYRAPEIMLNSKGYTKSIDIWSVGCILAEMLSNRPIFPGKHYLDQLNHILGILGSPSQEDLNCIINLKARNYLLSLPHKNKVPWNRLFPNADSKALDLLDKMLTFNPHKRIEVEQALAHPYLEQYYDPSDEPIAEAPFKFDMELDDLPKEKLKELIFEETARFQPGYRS
T5 sequence (P10721 26-976 V560G): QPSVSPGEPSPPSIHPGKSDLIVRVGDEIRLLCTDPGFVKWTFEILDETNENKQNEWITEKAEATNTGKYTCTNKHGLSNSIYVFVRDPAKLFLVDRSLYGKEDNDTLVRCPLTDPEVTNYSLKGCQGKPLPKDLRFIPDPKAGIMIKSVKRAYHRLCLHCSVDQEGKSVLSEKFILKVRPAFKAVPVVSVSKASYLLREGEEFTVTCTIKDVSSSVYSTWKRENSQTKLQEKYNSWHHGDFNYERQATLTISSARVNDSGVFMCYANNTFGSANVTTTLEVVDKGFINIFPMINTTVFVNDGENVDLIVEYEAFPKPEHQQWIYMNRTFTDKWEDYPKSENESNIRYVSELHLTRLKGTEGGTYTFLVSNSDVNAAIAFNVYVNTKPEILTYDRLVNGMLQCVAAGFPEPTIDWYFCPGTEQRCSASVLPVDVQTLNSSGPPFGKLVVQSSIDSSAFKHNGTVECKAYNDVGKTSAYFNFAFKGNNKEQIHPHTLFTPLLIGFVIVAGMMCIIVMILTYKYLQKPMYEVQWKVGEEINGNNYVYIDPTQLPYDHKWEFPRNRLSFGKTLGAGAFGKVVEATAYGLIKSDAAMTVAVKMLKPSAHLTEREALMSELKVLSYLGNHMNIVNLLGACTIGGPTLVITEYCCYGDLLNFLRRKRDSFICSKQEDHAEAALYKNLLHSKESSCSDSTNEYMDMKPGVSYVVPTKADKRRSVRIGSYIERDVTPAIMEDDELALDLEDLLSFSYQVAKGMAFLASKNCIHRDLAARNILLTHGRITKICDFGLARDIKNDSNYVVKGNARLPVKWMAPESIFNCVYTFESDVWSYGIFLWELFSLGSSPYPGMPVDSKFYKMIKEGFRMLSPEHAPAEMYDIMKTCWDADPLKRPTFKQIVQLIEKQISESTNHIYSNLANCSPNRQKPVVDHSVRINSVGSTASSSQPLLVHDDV
T6 sequence (P08581 25-1408 isoform P08581-2 Y1248C limits assumed): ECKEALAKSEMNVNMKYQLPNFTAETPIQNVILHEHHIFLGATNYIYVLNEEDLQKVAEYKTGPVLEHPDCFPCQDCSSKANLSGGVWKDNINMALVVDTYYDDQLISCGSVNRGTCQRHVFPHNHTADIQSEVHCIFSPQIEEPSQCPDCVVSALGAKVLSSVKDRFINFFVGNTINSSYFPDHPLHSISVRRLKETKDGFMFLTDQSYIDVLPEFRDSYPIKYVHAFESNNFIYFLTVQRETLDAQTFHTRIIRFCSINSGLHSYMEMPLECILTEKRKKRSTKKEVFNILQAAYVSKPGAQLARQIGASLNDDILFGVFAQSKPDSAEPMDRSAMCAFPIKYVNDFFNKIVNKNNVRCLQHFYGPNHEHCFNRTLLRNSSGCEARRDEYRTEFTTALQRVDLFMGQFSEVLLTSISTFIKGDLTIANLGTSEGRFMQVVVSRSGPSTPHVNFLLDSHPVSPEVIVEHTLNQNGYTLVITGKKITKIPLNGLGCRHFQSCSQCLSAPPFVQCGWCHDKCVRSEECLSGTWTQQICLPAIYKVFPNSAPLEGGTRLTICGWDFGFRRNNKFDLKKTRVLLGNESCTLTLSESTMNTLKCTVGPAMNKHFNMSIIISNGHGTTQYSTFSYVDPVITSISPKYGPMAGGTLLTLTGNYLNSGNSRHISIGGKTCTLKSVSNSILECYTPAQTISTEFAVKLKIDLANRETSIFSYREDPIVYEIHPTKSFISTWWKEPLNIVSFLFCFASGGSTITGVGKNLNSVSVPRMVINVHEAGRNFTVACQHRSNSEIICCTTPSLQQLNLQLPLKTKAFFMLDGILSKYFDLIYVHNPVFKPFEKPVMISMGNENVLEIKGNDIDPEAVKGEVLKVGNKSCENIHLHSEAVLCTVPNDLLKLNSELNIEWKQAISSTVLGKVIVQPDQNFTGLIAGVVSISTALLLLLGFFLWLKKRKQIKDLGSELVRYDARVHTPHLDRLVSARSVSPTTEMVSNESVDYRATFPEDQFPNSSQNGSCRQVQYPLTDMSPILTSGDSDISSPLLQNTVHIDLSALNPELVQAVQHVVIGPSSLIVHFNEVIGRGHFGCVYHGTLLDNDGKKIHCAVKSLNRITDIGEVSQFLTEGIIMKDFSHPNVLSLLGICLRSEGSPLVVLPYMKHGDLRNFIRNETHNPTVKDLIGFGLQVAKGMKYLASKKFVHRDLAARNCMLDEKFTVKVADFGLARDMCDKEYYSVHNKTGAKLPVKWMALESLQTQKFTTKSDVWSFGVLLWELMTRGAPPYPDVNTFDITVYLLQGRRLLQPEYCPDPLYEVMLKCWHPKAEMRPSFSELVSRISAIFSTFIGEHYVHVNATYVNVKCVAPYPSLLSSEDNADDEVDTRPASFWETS
T2 sequence (Q96GD4 whole entry): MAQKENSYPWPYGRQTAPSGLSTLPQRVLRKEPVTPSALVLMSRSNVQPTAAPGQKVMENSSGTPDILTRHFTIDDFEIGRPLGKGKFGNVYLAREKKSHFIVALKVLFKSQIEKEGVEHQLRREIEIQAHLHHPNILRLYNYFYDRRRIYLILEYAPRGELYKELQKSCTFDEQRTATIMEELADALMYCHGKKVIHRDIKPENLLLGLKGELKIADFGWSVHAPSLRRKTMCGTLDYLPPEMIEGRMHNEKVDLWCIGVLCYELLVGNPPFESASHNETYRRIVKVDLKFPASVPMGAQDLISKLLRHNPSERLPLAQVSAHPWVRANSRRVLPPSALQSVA
T8 sequence (Q9UM73 19-1620): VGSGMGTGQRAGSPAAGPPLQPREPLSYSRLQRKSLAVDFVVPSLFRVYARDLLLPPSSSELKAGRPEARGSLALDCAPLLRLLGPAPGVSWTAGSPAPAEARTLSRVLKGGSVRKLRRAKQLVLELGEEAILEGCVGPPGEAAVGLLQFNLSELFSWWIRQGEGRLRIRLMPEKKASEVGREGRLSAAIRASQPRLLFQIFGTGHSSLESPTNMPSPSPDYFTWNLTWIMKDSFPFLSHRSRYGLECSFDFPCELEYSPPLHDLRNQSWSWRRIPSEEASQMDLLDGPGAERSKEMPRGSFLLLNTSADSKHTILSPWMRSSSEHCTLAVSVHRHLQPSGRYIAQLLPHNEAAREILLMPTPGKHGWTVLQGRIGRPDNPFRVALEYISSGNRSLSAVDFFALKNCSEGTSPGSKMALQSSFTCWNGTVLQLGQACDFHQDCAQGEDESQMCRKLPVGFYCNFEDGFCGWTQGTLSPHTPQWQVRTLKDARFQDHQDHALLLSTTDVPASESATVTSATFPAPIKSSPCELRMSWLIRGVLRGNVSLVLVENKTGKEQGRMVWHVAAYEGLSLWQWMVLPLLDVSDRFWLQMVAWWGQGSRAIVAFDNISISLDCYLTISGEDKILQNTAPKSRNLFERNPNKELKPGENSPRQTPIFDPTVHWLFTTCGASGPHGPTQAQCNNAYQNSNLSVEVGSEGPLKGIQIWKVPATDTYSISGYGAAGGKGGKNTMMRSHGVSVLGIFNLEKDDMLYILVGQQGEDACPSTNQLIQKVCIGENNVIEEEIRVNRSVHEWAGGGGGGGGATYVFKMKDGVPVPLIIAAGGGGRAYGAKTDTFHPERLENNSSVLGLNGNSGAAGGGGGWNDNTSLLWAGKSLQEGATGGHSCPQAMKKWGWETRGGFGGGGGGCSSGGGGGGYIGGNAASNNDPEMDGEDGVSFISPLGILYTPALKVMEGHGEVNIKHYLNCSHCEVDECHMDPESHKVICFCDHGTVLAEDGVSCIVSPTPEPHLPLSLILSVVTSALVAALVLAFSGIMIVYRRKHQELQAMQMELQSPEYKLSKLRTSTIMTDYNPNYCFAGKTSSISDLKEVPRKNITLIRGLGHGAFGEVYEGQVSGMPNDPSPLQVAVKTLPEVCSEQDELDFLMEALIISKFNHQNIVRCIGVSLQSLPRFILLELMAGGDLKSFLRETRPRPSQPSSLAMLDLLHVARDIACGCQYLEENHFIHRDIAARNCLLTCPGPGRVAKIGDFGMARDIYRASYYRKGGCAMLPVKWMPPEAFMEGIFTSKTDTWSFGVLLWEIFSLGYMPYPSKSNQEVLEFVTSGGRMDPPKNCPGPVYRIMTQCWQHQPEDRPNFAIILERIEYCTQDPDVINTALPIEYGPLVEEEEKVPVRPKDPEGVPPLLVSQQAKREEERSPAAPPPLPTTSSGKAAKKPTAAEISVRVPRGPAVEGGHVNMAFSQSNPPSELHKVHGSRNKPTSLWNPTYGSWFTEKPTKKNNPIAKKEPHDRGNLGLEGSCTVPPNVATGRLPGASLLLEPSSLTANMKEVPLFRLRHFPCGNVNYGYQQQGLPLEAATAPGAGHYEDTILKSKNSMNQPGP
T3 sequence (P53779 whole entry): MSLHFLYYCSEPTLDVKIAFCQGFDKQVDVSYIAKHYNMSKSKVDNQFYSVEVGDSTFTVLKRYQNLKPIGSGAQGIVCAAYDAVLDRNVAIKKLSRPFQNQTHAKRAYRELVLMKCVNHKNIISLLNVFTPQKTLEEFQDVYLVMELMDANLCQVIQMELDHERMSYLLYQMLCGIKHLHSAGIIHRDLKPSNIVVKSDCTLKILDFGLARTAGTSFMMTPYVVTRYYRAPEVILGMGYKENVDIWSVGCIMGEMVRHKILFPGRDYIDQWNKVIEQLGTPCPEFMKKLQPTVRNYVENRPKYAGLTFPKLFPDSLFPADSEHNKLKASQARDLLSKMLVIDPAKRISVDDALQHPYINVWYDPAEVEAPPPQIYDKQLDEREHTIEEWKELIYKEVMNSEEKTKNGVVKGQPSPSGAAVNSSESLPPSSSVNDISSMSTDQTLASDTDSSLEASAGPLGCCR

Compound	GI50 (Breast cancer cells) [nM]	inhibition at 1 µM (MELK) [%]	inhibition at 1 µM (Aurora-B) [%]	inhibition at 1 µM (JNK3) [%]	inhibition at 1 µM (MAPK2) [%]	inhibition at 1 µM (cKit (V560G)) [%]	inhibition at 1 µM (Met(Y1248C)) [%]	inhibition at 1 µM (MUSK) [%]	inhibition at 1 µM (ALK) [%]	IC50 (human TTK; read-out: TTK IC50 Range) [nM]	GI50 [1] [nM]	GI50 [2] [nM]	GI50 (TICs (Ovarian 2393A)) [nM]	GI50 (TICs (Colon 12)) [nM]	IC50 (human TTK) [nM]
CC1=CC2(CCN(C)CC2)Oc2ccc(-c3n[nH]c4ccc(C(=O)N[C@H](c5ccccn5)C5CCCC5)cc34)cc21 [Example A261, (S)-N-(cyclopentyl(pyridin-2-yl)methyl)-3-(1′,4-dimethylspiro[chromene-2,4′-piperidin]-6-yl)-1H-indazole-5-carboxamide]	< 100	93	49	59	8	90	8	86	86	< 100	< 100	< 100	< 100	100 to 500	
O=C(N[C@@H](c1ccccn1)C1CC1)c1ccc2[nH]nc(-c3ccc(N4C5CCC4CC(O)C5)cc3)c2c1 (stereo partly drawn) [Example A363, N-((R)-cyclopropyl(pyridin-2-yl)methyl)-3-(4-((1R,3R,5S)-3-hydroxy-8-azabicyclo[3.2.1]octan-8-yl)phenyl)-1H-indazole-5-carboxamide]		80	75	90	90	48	23	53	6		< 100	< 100	< 100	< 100	< 100
CC(C)[C@H](NC(=O)c1ccc2[nH]nc(-c3ccc(N4CCN(C5COC5)CC4)cc3)c2c1)c1ccccc1Cl [Example A405, (S)-N-(1-(2-chlorophenyl)-2-methylpropyl)-3-(4-(4-(oxetan-3-yl)piperazin-1-yl)phenyl)-1H-indazole-5-carboxamide]	< 100	92	94	81	11	65	44	94	2	< 100	< 100	< 100	< 100	< 100	
O=C(N[C@H](c1ccccn1)C1CCCC1)c1ccc2[nH]nc(-c3ccc(N4CCN(C5COC5)CC4)cc3)c2c1 [Example A410, (S)-N-(cyclopentyl(pyridin-2-yl)methyl)-3-(4-(4-(oxetan-3-yl)piperazin-1-yl)phenyl)-1H-indazole-5-carboxamide]		95	92	81	-8	86	88	96	-3	< 100	< 100	< 100	< 100	< 100	
